Earlier results, collected in patent publication US8236927B2, “Stabilizer molecule-depleted albumin solution” (Albutec GmbH, priority 2005, dated 2012).

Biological target: T1, binding site II (diazepam binding site) of the albumin (Homo sapiens, UniProt P02768)
T1 construct: commercial albumin, stabilized with 5.2 mmole of octanoate and 5.2 mmol of N-acetyl tryptophanate per mmol albumin; purchased
Details: N-acetyl tryptophan added stepwise up to a molar ratio of 1:1; reduced from 100%

T1 sequence (P02768 25-609): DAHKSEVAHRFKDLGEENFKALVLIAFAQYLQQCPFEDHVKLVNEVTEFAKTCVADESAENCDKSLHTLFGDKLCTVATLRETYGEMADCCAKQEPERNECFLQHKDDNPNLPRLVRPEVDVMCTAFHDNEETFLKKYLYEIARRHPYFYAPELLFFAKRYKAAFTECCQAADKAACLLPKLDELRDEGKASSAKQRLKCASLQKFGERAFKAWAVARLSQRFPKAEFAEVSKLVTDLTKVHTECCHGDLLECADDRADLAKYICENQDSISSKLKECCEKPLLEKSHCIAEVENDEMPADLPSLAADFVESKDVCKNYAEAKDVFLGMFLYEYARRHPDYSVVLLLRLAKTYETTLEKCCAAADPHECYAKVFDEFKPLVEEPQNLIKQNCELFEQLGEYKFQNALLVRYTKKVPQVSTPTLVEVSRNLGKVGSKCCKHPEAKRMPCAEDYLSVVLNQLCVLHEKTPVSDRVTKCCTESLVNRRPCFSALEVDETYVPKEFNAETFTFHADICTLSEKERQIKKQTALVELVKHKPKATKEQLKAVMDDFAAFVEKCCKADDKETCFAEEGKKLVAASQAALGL

For `CC(=O)N[C@@H](Cc1c[nH]c2ccccc12)C(=O)O` [N-acetyl tryptophan], the “binding capacity for dansylsarcosin of ligand-free albumin” value is given as “about 60%”.
